Format in all cases: functional
Series [1] is described as follows: Total Growth inhibitory activity evaluated in NCI-60 tumor cell screen. Particulars: Homo sapiens.
Series [2] is described as follows: Growth inhibitory activity evaluated in NCI-60 tumor cell screen. Particulars: Homo sapiens.
Series [3] can be described thus: Lethal concentration for inhibitory activity evaluated in NCI-60 tumor cell screen. To be noted: human.

From ChEMBL document CHEMBL1133788, “Structure--activity relationships of side-chain modified didemnins” (Bioorg Med Chem Lett, 2001) come the findings set out here.

As a reminder, the TGI is the concentration at which net growth stops. What is called GI50 is the concentration giving 50% growth inhibition. A high value points to less potent growth inhibition. As a reminder, the LC50 is the concentration lethal to half of the exposed cells or organisms. Low values mean a more lethal substance, high ones a less lethal substance. Consider `CC[C@H](C)[C@H]1NC(=O)[C@@H](NC(=O)[C@@H](CC(C)C)N(C)C(=O)[C@H]2C=CCN2)[C@@H](C)OC(=O)[C@H](Cc2ccc(OC)cc2)N(C)C(=O)[C@@H]2CCCN2C(=O)[C@H](CC(C)C)NC(=O)[C@@H](C)C(=O)[C@H](C(C)C)OC(=O)C[C@@H]1O`, for which the TGI in series [1] was found to be 39 nM. The same compound came in with a GI50 in series [2] of 3 nM. Also, the LC50 in series [3] turned out to be 7000 nM.

Turning to `CC[C@H](C)[C@H]1NC(=O)[C@@H](NC(=O)[C@@H](CC(C)C)N(C)C[C@@H]2CCCN2C(=O)[C@@H](C)O)[C@@H](C)OC(=O)[C@H](Cc2ccc(OC)cc2)N(C)C(=O)[C@@H]2CCCN2C(=O)[C@H](CC(C)C)NC(=O)[C@@H](C)C(=O)[C@H](C(C)C)OC(=O)C[C@@H]1O`, the TGI in series [1] was found to be 76 nM. Also, the GI50 in series [2] turned out to be 4 nM. Further, in series [3], the LC50 was found to be 3000 nM.

In series [1], `CC[C@H](C)[C@H]1NC(=O)[C@@H](NC(=O)[C@@H](CC(C)C)N(C)C(=O)[C@@H]2C=CCN2C(=O)[C@@H](C)O)[C@@H](C)OC(=O)[C@H](Cc2ccc(OC)cc2)N(C)C(=O)[C@@H]2CCCN2C(=O)[C@H](CC(C)C)NC(=O)[C@@H](C)C(=O)[C@H](C(C)C)OC(=O)C[C@@H]1O` displayed a TGI of 20 nM. In series [2], the 50% growth inhibitory concentration (GI50) is 2.8 nM. For the same compound, the LC50 in series [3] was 83 nM.

`CC[C@H](C)[C@H]1NC(=O)[C@@H](NC(=O)[C@@H](CC(C)C)N(C)C(=O)CNC(=O)Cc2cc(=O)oc3cc(N(C)C)ccc23)[C@@H](C)OC(=O)[C@H](Cc2ccc(OC)cc2)N(C)C(=O)[C@@H]2CCCN2C(=O)[C@H](CC(C)C)NC(=O)[C@@H](C)C(=O)[C@H](C(C)C)OC(=O)C[C@@H]1O`: in series [1], the TGI was 20.5 nM. This compound also showed a GI50 in series [2] of 11 nM. For the same compound, the LC50 in series [3] stood at 7200 nM.

In series [1], `CC[C@H](C)[C@H]1NC(=O)[C@@H](NC(=O)[C@@H](CC(C)C)N(C)C(=O)C2CCCN2)[C@@H](C)OC(=O)[C@H](Cc2ccc(OC)cc2)N(C)C(=O)[C@@H]2CCCN2C(=O)[C@H](CC(C)C)NC(=O)[C@@H](C)C(=O)[C@H](C(C)C)OC(=O)C[C@@H]1O` (stereo not given in full) displayed a TGI of 12 nM. Also, the GI50 in series [2] stood at 0.62 nM. The compound further had an LC50 in series [3] of 210 nM.
